Experiments:
MCP-1 = MCP-1 expression and release from neuron cultures (enzyme immunoassay); type: cell-based
Procedure: For measurement of cPLA2 activity and MCP-1 levels in cell lysates, neuronal lysates were prepared by harvesting neurons in ice-cold Tris-buffered saline (pH 7.4) containing phosphatase inhibitor, sonicated three times in five-second bursts and placed on ice (two minutes) between each burst of sonication. The lysed cell suspensions were centrifuged at 10,000 rpm (10 minutes) and the supernatant was collected in another tube. Equal amounts of protein from the supernatant were processed for cPLA2 activity assay according to the manufacturer's protocol. Equal protein from the lysates were also used to estimate MCP-1 levels using an MCP-1 ELISA kit.
For measurement of PGE2 levels and MCP-1 levels released from neurons, culture medium was collected from each experimental plate and centrifuged at 1000 rpm for five minutes to remove cellular debris. Equal volume (100 μl) of the supernatant from each sample was used to determine PGE2 level using the PGE2 ELISA kit according to the manufacturer's instructions.

[1] = system: control and hyperhomocysteinemic rats subjected to MCAO; experiment: MCAO (60 min) and reperfusion; infarct size and structural integrity by MRI (T2, ADC, FA maps); type: in vivo, male Wistar rats; details: for total infarct volume (T2 maps): 24 hours after MCAO
Procedure: Middle cerebral artery occlusion (MCAO) was performed on both male rats and mice. For rat studies, control and hyperhomocysteinemic male Wistar rats (8-9 weeks, 290-295 g) were subjected to MCAO under anesthesia (2% isoflurane in medical grade oxygen), using the intraluminal method as previously described (Candelario-Jalil, E., et al., 2004, Brain Res 1007:98-108; Deb et al., 2013, J Neurosci 33:17814-17826). Briefly, the right common carotid artery (CCA) was exposed through an incision made in the ventral midline neck region. To prevent improper insertion of the occluding filament, both the external carotid artery and pterygopalatine branch of the internal carotid artery were clipped. A silicon-rubber-coated monofilament (403756, Doccol Corp., Sharon, Mass.) was inserted into the internal carotid artery through an incision made in the CCA, 2 mm proximal from the bifurcation of the CCA, and advanced 18-19 mm from the bifurcation, to occlude the origin of the anterior cerebral, middle cerebral, and posterior communicating arteries. The incision was closed and the rats were allowed to recover from anesthesia. A quick assessment of neurological deficit was done immediately prior to reperfusion and only those animals that had more than 50% of contralateral forelimb flexion and walked in circles to the contralateral side were considered for the study, as previously described (Longa et al., 1989, Stroke 20:84-91). Following 60 minutes of occlusion, the rats were anesthetized and the filament was gently retracted to allow reperfusion. The incision was closed and the rats were allowed to recover from anesthesia. A subset of control and hyperhomocysteinemic rats received a single intravenous injection of GluN2A-NMDAR selective inhibitor NVP-AAM077 (1.2 mg/kg body weight) through the femoral vein, and another subset received a single intraperitoneal injection of GluN2B-NMDAR inhibitor Ro 256981 (6 mg/kg body weight), as previously described (Chaperon et al., 2003, Behav Pharmacol 14:477-87; Fox et al., 2006, Hippocampus 16:907-015). Both NVP-AAM077 and Ro 256981 were administered at the onset of ischemic insult. The rats were then subjected to MRI on days 1, 3, and 14 post-MCAO and a series of behavioral tests was performed between days 7-9 post-MCAO.
Multimodal MRI of rat brain that includes relaxation time imaging and diffusion imaging was performed at 1, 3 and 14 days after MCAO and reperfusion. The rats were placed in a dedicated holder and positioned in the isocenter of a 4.7-Tesla MRI scanner (Bruker Biospin) that is equipped with a 40-cm bore and a gradient of 660 mT/m at rise time within […]. To obtain good signal-to-noise ratio, a small-bore linear RF coil (inner diameter=72 mm) was used for signal excitation, and a single tuned surface coil (RAPID Biomedical, Rimpar, Germany) was used for signal detection (Sood et al., 2009, J Cereb Blood Flow Metab 29:308-316; Taheri, S. and Sood, R., 2007, Magn Reson Imaging 25:613-625; Yang et al., 2013 J Cereb Blood Flow Metab 33:1104-1114). For mice, the MRI was performed only at day 1. The mice were placed in its dedicated holder of inner diameter 72 mm in the 4.7-Tesla MRI scanner with a 40-cm bore size and a gradient rise time/maximum speed of 9000 T/m/s. During MRI, the rats and mice were kept anesthetized with 2% isoflurane in medical grade oxygen. Respiration and heart rate were monitored continuously and body temperature was maintained at 37.0±0.5° C.
For rats, T2-weighted images were acquired with a rapid acquisition with relaxation enhancement (RARE) sequence of Repetition Time (TR)/Echo Time (TE)=5,000 ms/56 ms, Field of View (FOV)=4 cm×4 cm, slice thickness=1 mm, inter-slice distance=1.1 mm, number of slices=12, matrix=256×256 and number of average=3. For mice, T2 weighted images were acquired with a RARE sequence of Repetition Time/Echo Time=5,000 ms/56 ms, Field of View=4 cm×4 cm, slice thickness=1 mm, number of slices=12, matrix=256×256 and number of average=3. […]

[2] = control rats, single injection at onset of ischemic insult (NVP-AAM077 1.2 mg/kg; Ro 256981 6 mg/kg), untreated control 18.65±2.89%
[3] = hyperhomocysteinemic (HHcy) rats, single injection at onset of insult (NVP-AAM077 1.2 mg/kg; Ro 256981 6 mg/kg), untreated HHcy 37.41±2.33%

SMILES | expression and release of MCP-1 from neurons (MCP-1; L-homocysteine 50 μM, 0, two and four hours, alone) | total infarct volume (T2 maps) [1, 2] | total infarct volume (T2 maps) [1, 3] | lesion volume (T2 maps) ([1]; HHcy rats, day 3 after MCAO, NVP-AAM077 1.2 mg/kg, untreated HHcy 38.63±2.75%) | FA value in the infarcted area ([1]; HHcy rats, day 14 after MCAO, NVP-AAM077 1.2 mg/kg, untreated HHcy 0.25±0.01) | lesion volume (T2 maps) ([1]; HHcy rats, day 14 after MCAO, NVP-AAM077 1.2 mg/kg, untreated HHcy 27.16±2.18%) | effect on homocysteine-induced expression and release of MCP-1 (MCP-1; L-homocysteine 50 μM four hours, with DL-AP5 200 μM or NVP-AAM077 30 nM)
N[C@@H](CCS)C(=O)O [L-homocysteine] | progressive increase in expression and release | – | – | – | – | – | –
C[C@@H](CN1CCC(Cc2ccccc2)CC1)[C@@H](O)c1ccc(O)cc1 [Ro 25-6981] | – | 7.46±1.24% | 32.48±4.32% | – | – | – | –
C[C@H](NC(c1cccc2[nH]c(=O)c(=O)[nH]c12)P(=O)(O)O)c1ccc(Br)cc1 (stereo partly drawn) [NVP-AAM077, ({[(1S)-1-(4-bromophenyl)ethyl]amino}-(2,3-dioxo-1,4-dihydroquinoxalin-5-yl)methyl)phosphonic acid] | – | 16.07±2.8% | 17.98±3.24% | 19.61±4.48% | 0.32±0.01 | 10.76±2.40% | attenuates the expression and release of MCP-1

From patent US11541065B2, “Compositions and methods for treating brain injury” (UNM RAINFOREST INNOVATIONS, priority 2018, dated 2023)
